# Columns and labels:
# [1] = test system: GM3 synthase deficient mice; assay: Motor and cognitive function, ganglioside replacement therapy in GM3 synthase deficient mice; format: in vivo; details: 5 mg/kg IP once daily; GM3 synthase deficient mice (knock-outs and heterozygotes)
# Protocol: FIG. 15. Motor and Cognitive function of GM3 synthase deficient mice (heterozygotes; HT and homozygotes; KO; 7-10 months old) treated with either saline (Sal) or GM1 (d18:1, C18:0) (30 mg/Kg, intraperitoneal, once daily for 3 weeks) and compared to age matched controlled wild type mice (WT). FIG. 15A. Grip Duration, FIG. 15B. Beam Transversal, and FIG. 15C. Short-term memory impairment (T-maze).
# (§1) The minimum effective dose of GM1 of the invention was 5 mg/kg (IP, once daily) when administered as ganglioside replacement therapy in ganglioside deficient mice FIG. 27. […] The predicted therapeutic human dose based on allometric scaling of all animal and human data is predicted to be 2-10 mg/Kg administered daily as a parenteral (e.g., subcutaneous, intraperitoneal, intramuscular). In an exemplary embodiment, the therapeutically effective amount is from about 2 to about 10 mg per kg of body weight per dosage. In an exemplary embodiment, the dose of the GM1 formulation is administered parenterally once daily.
# [2] = test system: Huntington's disease YAC128 mice; assay: Motor function (rotarod, narrow beam) in Huntington's disease YAC128 mice; format: in vivo; details: Alzet pump, intracerebral ventricular injection
# Protocol: FIG. 25. Improvement of motor function in Huntington's disease YAC128 mice after ganglioside replacement therapy using ganglioside compositions of the invention. Mice were administered GM1 using an Alzet pump and intracerebral ventricular injection. FIG. 25A. […] FIG. 25B. […] WT mice treated with GM1 (□), solid line; WT mice treated with cerebral spinal fluid (▪) hashed line; YAC128 Huntington's disease mice treated with cerebral spinal fluid (⋄) hashed line; YAC128 Huntington's disease mice treated with GM1 (♦) solid line.
# In still other embodiments, gangliosides and other compounds of the invention can be used as a therapeutic to treat Huntington's disease caused by a deficiency of one or more ganglioside species, e.g., GM3, GM2 and/or GM1, FIGS. 20 and 24 (Di Pardo (2016) Front. Neurosci. 10:457). In some embodiments, the ganglioside deficiency is caused by reduced or missing enzyme activity and/or expression selected from GM3 synthase (ST3Gal5), GM2 synthase (B4GalNT1) and GM1 synthase (B3GalT4), FIG. 24 (Desplats (2007) Neurobiol. Dis. 27(3): 265-277). In another preferred embodiment, the ganglioside deficiency encompasses reduced amounts or missing ganglioside selected from GM3, GM2 and/or GM1. […]
# [3] = Formulation / solubility of GM1 in water or buffer; format: physicochemical; details: 50 to 500 mg/mL
# Protocol: (§2) FIG. 26. Solubility of GM1 of the Invention and Pharmacokinetics of different formulations of GM1 in Sprague Dawley after subcutaneous administration at a dose of 30 mg/Kg. GM1 was formulated at different GM1 concentrations from 50 mg/mL to 500 mg/mL in water or buffer with or without excipients and cosolvents.
# (§3) Example 4. Formulation of GM1. Water or buffer solutions were added to GM1 and the suspension stirred until the GM1 was completely dissolved. […] Concentrations of solutions of GM1 prepared by this method included 50 mg/mL, 100 mg/mL, 200 mg/mL, 300 mg/mL, 400 mg/mL and 500 mg/mL. Formulations containing phosphate buffer 0-15 mM (pH 7.0-7.4) were also used and various excipients added including arginine (60-100 mM) and sodium chloride (0-137 mM) (FIG. 26).
# [4] = test system: GM2 synthase deficient mice; assay: Minimum effective dose and motor/cognitive function, ganglioside replacement therapy in GM2 synthase deficient mice; format: in vivo
# Protocol: FIG. 14. Motor and Cognitive function of GM2 synthase deficient mice (heterozygotes; HT and homozygotes; KO; 200-300 day old) treated with either saline (Sal) or GM1 (d18:1, C18:0) (30 mg/Kg, intraperitoneal, once daily) and compared to age matched controlled wild type mice (WT). FIG. 14A. Mouse grip strength, and FIG. 14B. Mouse cognitive function (T-maze), were assessed after 3 weeks of dosing.
# FIG. 27. Minimum effective dose. Motor function of GM2 synthase deficient mice (heterozygotes; HT, 200-300 day old) treated with GM1(d18:1, C18:0) (intraperitoneal, once daily). FIG. 27A. Mouse grip strength, FIG. 27B. Adhesive removal, and FIG. 27C. Pole climbing.
# as §1
# [5] = Stability of GM1 formulations at room temperature; format: physicochemical; details: water or phosphate buffer 0-15 mM pH 7.0-7.4, arginine 60-100 mM, sodium chloride 0-137 mM
# Protocol: as §3
# [6] = Pharmacokinetics of formulated GM1 after subcutaneous administration; format: in vivo; details: Sprague Dawley rats, 30 mg/Kg, all GM1 concentrations tested
# Protocol: as §2
# Example 5. Pharmacokinetics of Formulated GM1. The formulated GM1 was administered, subcutaneously, to Sprague Dawley rats and the pharmacokinetics determined (FIG. 26). The plasma GM1 levels returned to normal after 72 hours for all GM1 concentrations tested.
# [7] = vendor or literature description; cited from earlier work
structure (smiles),measurement,setting,value
"CCCCCCCCCCCCC/C=C/C(O)C(CO[C@@H]1O[C@H](CO)[C@@H](O[C@@H]2O[C@H](CO)[C@H](O[C@@H]3O[C@H](CO)[C@H](O)[C@H](O[C@@H]4O[C@H](CO)[C@H](O)[C@H](O)[C@H]4O)[C@H]3NC(C)=O)[C@H](O[C@]3(C(=O)O)C[C@H](O)[C@@H](NC(C)=O)[C@@H](C(O)C(O)CO)O3)[C@H]2O)[C@H](O)[C@H]1O)NC(=O)CCCCCCCCCCCCCCCCC (stereo partly drawn) [GM1, GM1 (d18:1/C18:0)]",motor and cognitive deficits,[1],reversing motor and cognitive deficits
same,rotarod motor function,[2]; FIG. 25A,Improved rotarod motor function
same,narrow beam motor function,[2]; FIG. 25B,Improved narrow beam motor function
same,appearance of solution,[3],"clear, colorless and non-opaque solution"
same,motor and cognitive deficits,"[4]; 5 mg/kg IP once daily, GM2 synthase deficient mice (knock-outs and heterozygotes)",reversing motor and cognitive deficits
same,minimum effective dose,"[4]; IP, once daily, ganglioside replacement therapy in ganglioside deficient mice (FIG. 27: grip strength, adhesive removal, pole climbing)",5 mg/kg
same,stability of formulations,[5],stable at room temperature for months
same,time after which plasma GM1 levels returned to normal,[6],72 h
same,solubility in water,[7],effectively no solubility in water

# — patent publication US20250289844A1, “TREATMENT OF GM1 DEFICIENCIES” (Seneb BioSciences, Inc., priority 2022, published 2025)
